Measured values taken from patent US20060074131A1, “Novel crystalline polymorph of venlafaxine hydrochloride and methods for the preparation thereof” (Wyeth, priority 2001, published 2006).
Structures can show the parent of a compound that is named as a salt.

Tests used:
[1] = Thermogravimetric analysis (TGA); format: physicochemical; conditions: heated from 28 to 238° C. at 10° C./minute under nitrogen purge
Procedure: A sample of the venlafaxine hydrochloride crystalline polymorph of the present invention was heated from 28 to 238° C. at a scan rate of 10° C./minute in a Pyris I TGA, available from Perkin-Elmer of Shelton, Conn., under a nitrogen purge.

muscaranic receptors = conditions: in vitro; cited from earlier work
histaminergic receptors = conditions: in vitro; cited from earlier work
adrenergic receptors = conditions: in vitro; cited from earlier work
monoamine oxidase = conditions: cited from earlier work
[2] = Intrinsic dissolution rate (USP 23 section 711, apparatus 2, compressed pellets in water); format: physicochemical; conditions: 900 mL water, 37° C., 100 rpm, pellet with exposed surface area 0.5 cm^2, UV 220 nm
Procedure: The intrinsic dissolution rates of Form II and the crystalline polymorph of the present invention were determined as follows. Pellets of venlafaxine hydrochloride were prepared by compressing 100 mg of each material in a die (Wood's apparatus) at 1000 psi for 1 minute with a Carver press. […] The dissolution rate in 900 mL of water was determined by USP 23 (1995), section 711, page 1791 (Dissolution, apparatus 2), with a rotation speed of 100 rpm at 37° C. The dissolution media was circulated through a 1.0 cm path microflow cell at a flow rate of 10 mL/minute. Ultraviolet absorbance was recorded at 220 nm.

SMILES: COc1ccc(C(CN(C)C)C2(O)CCCCC2)cc1 (stereo not drawn) [venlafaxine hydrochloride]
- weight loss on heating (TGA) [1]: lost little weight until it was heated near the melting point

SMILES: COc1ccc(C(CN(C)C)C2(O)CCCCC2)cc1 (stereo not drawn) [venlafaxine, 1-[2-(dimethylamino)-1-(4-methoxyphenyl)ethyl]cyclohexanol]
- affinity for muscaranic receptors (muscaranic receptors): virtually no affinity
- affinity for histaminergic receptors (histaminergic receptors): virtually no affinity
- affinity for adrenergic receptors (adrenergic receptors): virtually no affinity
- inhibitory activity on monoamine oxidase (monoamine oxidase): no inhibitory activity

SMILES: COc1ccc(C(CN(C)C)C2(O)CCCCC2)cc1 (stereo not drawn) [Form II, venlafaxine hydrochloride]
- intrinsic dissolution rate [2]: 24.7 mg/cm^2-minute
